Measured values as given in patent US6897244B2, “Dihydronootkatone and tetrahydronootkatone as repellents to arthropods” (Board of Supervisors of Louisiana State University and …, priority 2002, dated 2005).
“Also recorded” adds a separate entry of the source.

Tests used:
[1] = test system: Formosan subterranean termites; experiment: Petri dish treated/untreated sand bioassay for repelling activity against termites; format: in vivo, Coptotermes formosanus; parameters: key to percent of termites on untreated sand vs expected value of 50% (Chi-Square, p≦0.05): “−” indicates the test was not significantly different from the expected value; “+” indicates the test was significantly different from the expected value
Protocol: A carton nest (colony A) of Formosan subterranean termites was collected in Algiers, Louisiana in November 1997, and held in 250-liter cans. The cans were filled with pine as a food source, and kept at a temperature range of 24-26° C. Moistened corrugated cardboard rolls were used to retrieve termites from the cans. Once the termites migrated to the cardboard rolls, they were gently knocked from the cardboard rolls into clean rectangular plastic trays (40 cm×50 cm). Retrieved termites were isolated from debris by allowing them to cling to sheets of moistened paper towels. The average weight of each termite was 1.21 mg.
To test for effectiveness of nootkatone, 1,10-dihydronootkatone and tetrahydronootkatone in repelling termites, a bioassay was conducted using Petri dishes (5 cm diameter and 1 cm height). To ensure adequate moisture for the termites, 1 ml of a hot agar solution (1.5% in H2O) was spread on the bottom of the Petri dish. After the agar cooled, sand that was treated as described below was spread on the bottom of the Petri dish. For the treated sand, purified 1,10-dihydronootkatone or tetrahydronootkatone were dissolved in 2 ml ethanol, and then diluted to achieve final concentrations of 1, 2, 5, 12.5, 25, 50, and 100 μg/g sand. The solution was mixed with 1 g sand that had been autoclaved and cooled. The control sand was autoclaved sand with only 200 μl ethanol added. One half of the surfaces in the Petri dishes were covered with 1 g treated sand, and the other half with 1 g untreated sand.
The prepared Petri dishes were then used to evaluate the repelling activity against Formosan subterranean termites. Ten worker termites were added to each Petri dish, and the dishes were covered to eliminate light. Five replicate dishes were tested for each concentration and for the control. Termite position was recorded every 15 min during the first hour of testing by counting the number of termites observed on untreated sand. After the first hour, termite position was recorded each hour for 3 hr.
Differences between the percent of termites on untreated sand and an expected value were statistically analyzed by a Chi-Square analysis, using an expected value of 50% and a significance level of p≦0.05.

[2] = test system: biting midges (family Ceratopogonidae, genus Culicoides); experiment: Field test of 5% solution applied to faces against biting midges in a marsh; format: in vivo; conditions: 5% solution in 70% isopropyl alcohol applied to faces of two volunteers
Protocol: To test the repellence of tetrahydronootkatone on biting midges (family Ceratopogonidae, genus Culicoides), tetrahydronootkatone was dissolved in 70% isopropyl alcohol to a final concentration of 5%. This solution was used to topically apply to the faces of two adult male volunteers. […] The six males went into a southern Louisiana marsh, an area known for biting midges.

[3] = test system: salt marsh mosquitoes, Aedes vexans; experiment: Mosquito bites on arm treated topically with 5% solution, placed in mosquito cage; format: in vivo; conditions: for Number of Mosquito Bites in a 2 min Period: arm treated with 5 ml of 5% solution
Protocol: To test the repellence of tetrahydronootkatone on mosquitos, tetrahydronootkatone was dissolved in 70% isopropyl alcohol to a final concentration of 5%. This solution was used to topically apply to the arms of two male volunteers. Each volunteer cleaned each arm thoroughly with soap and water, and then wiped down each arm with 70% isopropyl alcohol. The right arm of each volunteer was treated with 5 ml of the 5% tetrahydronootkatone solution. The left arm served as a control. To test for mosquito repellence, each arm of a single volunteer was placed into a cage of freshly collected mosquitoes, about 100 mosquitos per cage. The mosquitoes were salt marsh mosquitoes, Aedes […]. After 2 min, the number of mosquito bites on each arm were counted. Tests were run at 5 min, 1 hr, 2 hr, and 3 hr after the initial application of tetrahydronootkatone.

With `CC(C)C1CCC2CC(=O)CC(C)C2(C)C1` (stereo not drawn) [Tetrahydronootkatone, 1,4,4a,5,6,7,8,10-octahydro-6-isopropl-4,4a-dimethyl-2(1H)-naphthalenone] the “percent of termites on untreated sand vs expected value of 50% (Chi-Square, p≦0.05)” value (“percent … of 50% (Chi-Square, p≦0.05)” for short) ([1]; 1 μg/dish, 0.25 hour) was “−”, the “percent … of 50% (Chi-Square, p≦0.05)” value ([1]; 1 μg/dish, 0.5 hour) was “−” and the “percent … of 50% (Chi-Square, p≦0.05)” value ([1]; 1 μg/dish, 0.75 hour) was “−”. The “percent … of 50% (Chi-Square, p≦0.05)” value ([1]; 1 μg/dish, 1 hour) was “−”, the “percent … of 50% (Chi-Square, p≦0.05)” value ([1]; 1 μg/dish, 2 hour) was “−” and the “percent … of 50% (Chi-Square, p≦0.05)” value ([1]; 1 μg/dish, 3 hour) was “−”. For the same molecule, the “percent … of 50% (Chi-Square, p≦0.05)” value ([1]; 2 μg/dish, 0.25 hour) was “+”, the “percent … of 50% (Chi-Square, p≦0.05)” value ([1]; 2 μg/dish, 0.5 hour) was “+” and the “percent … of 50% (Chi-Square, p≦0.05)” value ([1]; 2 μg/dish, 0.75 hour) was “+”. The “percent … of 50% (Chi-Square, p≦0.05)” value ([1]; 2 μg/dish, 1 hour) was “+”, the “percent … of 50% (Chi-Square, p≦0.05)” value ([1]; 2 μg/dish, 2 hour) was “+” and the “percent … of 50% (Chi-Square, p≦0.05)” value ([1]; 2 μg/dish, 3 hour) was “+”. The “percent … of 50% (Chi-Square, p≦0.05)” value ([1]; 5 μg/dish, 0.25 hour) was “−”, the “percent … of 50% (Chi-Square, p≦0.05)” value ([1]; 5 μg/dish, 0.5 hour) was “+” and the “percent … of 50% (Chi-Square, p≦0.05)” value ([1]; 5 μg/dish, 0.75 hour) was “+”. The “percent … of 50% (Chi-Square, p≦0.05)” value ([1]; 5 μg/dish, 1 hour) was “+”, the “percent … of 50% (Chi-Square, p≦0.05)” value ([1]; 5 μg/dish, 2 hour) was “+” and the “percent … of 50% (Chi-Square, p≦0.05)” value ([1]; 5 μg/dish, 3 hour) was “+”. The “percent … of 50% (Chi-Square, p≦0.05)” value ([1]; 12.5 μg/dish, 0.25 hour) was “+”, the “percent … of 50% (Chi-Square, p≦0.05)” value ([1]; 12.5 μg/dish, 0.5 hour) was “+” and the “percent … of 50% (Chi-Square, p≦0.05)” value ([1]; 12.5 μg/dish, 0.75 hour) was “+”. The “percent … of 50% (Chi-Square, p≦0.05)” value ([1]; 12.5 μg/dish, 1 hour) was “+”, the “percent … of 50% (Chi-Square, p≦0.05)” value ([1]; 12.5 μg/dish, 2 hour) was “+” and the “percent … of 50% (Chi-Square, p≦0.05)” value ([1]; 12.5 μg/dish, 3 hour) was “+”. For the same molecule, the “percent … of 50% (Chi-Square, p≦0.05)” value ([1]; 25 μg/dish, 0.25 hour) was “−”, the “percent … of 50% (Chi-Square, p≦0.05)” value ([1]; 25 μg/dish, 0.5 hour) was “+” and the “percent … of 50% (Chi-Square, p≦0.05)” value ([1]; 25 μg/dish, 0.75 hour) was “+”. For the same molecule, the “percent … of 50% (Chi-Square, p≦0.05)” value ([1]; 25 μg/dish, 1 hour) was “+”, the “percent … of 50% (Chi-Square, p≦0.05)” value ([1]; 25 μg/dish, 2 hour) was “+” and the “percent … of 50% (Chi-Square, p≦0.05)” value ([1]; 25 μg/dish, 3 hour) was “+”. For the same molecule, the “percent … of 50% (Chi-Square, p≦0.05)” value ([1]; 50 μg/dish, 0.25 hour) was “+”, the “percent … of 50% (Chi-Square, p≦0.05)” value ([1]; 50 μg/dish, 0.5 hour) was “+” and the “percent … of 50% (Chi-Square, p≦0.05)” value ([1]; 50 μg/dish, 0.75 hour) was “+”. For the same molecule, the “percent … of 50% (Chi-Square, p≦0.05)” value ([1]; 50 μg/dish, 1 hour) was “+”, the “percent … of 50% (Chi-Square, p≦0.05)” value ([1]; 50 μg/dish, 2 hour) was “+” and the “percent … of 50% (Chi-Square, p≦0.05)” value ([1]; 50 μg/dish, 3 hour) was “+”. The “percent … of 50% (Chi-Square, p≦0.05)” value ([1]; 100 μg/dish, 0.25 hour) was “+”, the “percent … of 50% (Chi-Square, p≦0.05)” value ([1]; 100 μg/dish, 0.5 hour) was “+” and the “percent … of 50% (Chi-Square, p≦0.05)” value ([1]; 100 μg/dish, 0.75 hour) was “+”. For the same molecule, the “percent … of 50% (Chi-Square, p≦0.05)” value ([1]; 100 μg/dish, 1 hour) was “+”, the “percent … of 50% (Chi-Square, p≦0.05)” value ([1]; 100 μg/dish, 2 hour) was “+” and the “percent … of 50% (Chi-Square, p≦0.05)” value ([1]; 100 μg/dish, 3 hour) was “+”. The “factor by which the effective termite-repellent concentration is lower than that of nootkatone” value ([1]; relative to nootkatone) was 50, the “concentration effective as termite repellent” value ([1]; time periods up to 3 hr) was 2 µg and the “repellence of biting midges” value [2] was “fewer problems with biting midges; also recorded: effective repellent for biting midges”. The mosquito repellence ([3]; 5% solution, time periods up to 3 hr after the initial application) was “effective mosquito repellent”, the “Number of Mosquito Bites in a 2 min Period” value (“Number of Mosquito Bites” for short) ([3]; Volunteer 1, 5 min after application) was 0 and the “Number of Mosquito Bites” value ([3]; Volunteer 1, 1 hr after application) was 0. The “Number of Mosquito Bites” value ([3]; Volunteer 1, 2 hr after application) was 0, the “Number of Mosquito Bites” value ([3]; Volunteer 1, 3 hr after application) was 0 and the “Number of Mosquito Bites” value ([3]; Volunteer 2, 5 min after application) was 0. For the same molecule, the “Number of Mosquito Bites” value ([3]; Volunteer 2, 1 hr after application) was 0, the “Number of Mosquito Bites” value ([3]; Volunteer 2, 2 hr after application) was 0 and the “Number of Mosquito Bites” value ([3]; Volunteer 2, 3 hr after application) was 2.
